Test results taken from ChEMBL document CHEMBL5108023, “Design, synthesis and biological evaluation of rhein-piperazine-dithiocarbamate hybrids as potential anticancer agents” (Eur J Med Chem, 2022).
In brackets after ≈: the same amount, converted by molar mass.

What was measured:
WI-38 = assay: Antiproliferative activity against human WI-38 cells measured after 48 hrs by MTT assay; assay type: functional, cell-based; settings: WI-38, 48 h
[1] = Selectivity index, ratio IC50 for antiproliferative activity against human WI-38 cells over IC50 for antiproliferative activity against human A549 cells; assay type: toxicity, cell-based; settings: WI-38 cells and A549 cells, read-out: Ratio IC50
A549 = assay: cells; settings: Homo sapiens, A549, 48 h
Calu-1 = assay: Antiproliferative activity against human Calu-1 cells measured after 48 hrs by MTT assay; assay type: functional, cell-based; settings: Calu-1, 48 h
PC-9 [2] = assay: Antiproliferative activity against human PC-9 cells measured after 48 hrs by MTT assay; assay type: functional, cell-based; settings: PC-9, 48 h
NCI-H460 = assay: Antiproliferative activity against human NCI-H460 cells measured after 48 hrs by MTT assay; assay type: functional, cell-based; settings: NCI-H460, 48 h
Huh-7 = assay: Antiproliferative activity against human Huh-7 cells measured after 48 hrs by MTT assay; assay type: functional, cell-based; settings: Huh-7, 48 h
786-0 = assay: Antiproliferative activity against human 786-0 cells measured after 48 hrs by MTT assay; assay type: functional, cell-based; settings: 786-0, 48 h
HCT-116 = assay: Antiproliferative activity against human HCT-116 cells measured after 48 hrs by MTT assay; assay type: functional, cell-based; settings: HCT-116, 48 h
HeLa = assay: Antiproliferative activity against human HeLa cells measured after 48 hrs by MTT assay; assay type: functional, cell-based
SK-BR-3 = assay: Antiproliferative activity against human SK-BR-3 cells measured after 48 hrs by MTT assay; assay type: functional, cell-based; settings: SK-BR-3, 48 h
SK-OV-3 = assay: Antiproliferative activity against human SK-OV-3 cells measured after 48 hrs by MTT assay; assay type: functional, cell-based; settings: SK-OV-3, 48 h
PC-9 [3] = assay: Induction of apoptosis in human PC-9 cells assessed as total apoptotic cells at 3 ug/ml measured after 48 hrs by AnnexinV-FITC/PI staining based flow cytometry (reference value: 6.99%); assay type: functional; settings: dose 3 µg/ml
PC-9 [4] = assay: Induction of apoptosis in human PC-9 cells assessed as total apoptotic cells at 10 ug/ml measured after 48 hrs by AnnexinV-FITC/PI staining based flow cytometry (reference value: 6.99%); assay type: functional; settings: dose 10 µg/ml
PC-9 [5] = assay: Induction of apoptosis in human PC-9 cells assessed as total apoptotic cells at 100 ug/ml measured after 48 hrs by AnnexinV-FITC/PI staining based flow cytometry (reference value: 6.99%); assay type: functional; settings: dose 100 µg/ml
[6] = Acute toxicity in female ICR mouse assessed as pathological changes in heart at 6.25 to 50 mg/kg measured by H and E staining method; assay type: organism-based; settings: in vivo, dose 6.25-50 mg/kg
[7] = Acute toxicity in female ICR mouse assessed as pathological changes in liver at 6.25 to 50 mg/kg measured by H and E staining method; assay type: organism-based; settings: in vivo, dose 6.25-50 mg/kg
[8] = Acute toxicity in female ICR mouse assessed as pathological changes in spleen at 6.25 to 50 mg/kg measured by H and E staining method; assay type: organism-based; settings: in vivo, dose 6.25-50 mg/kg
[9] = Acute toxicity in female ICR mouse assessed as pathological changes in lung at 6.25 to 50 mg/kg measured by H and E staining method; assay type: organism-based; settings: in vivo, dose 6.25-50 mg/kg
[10] = Acute toxicity in female ICR mouse assessed as pathological changes in kidney at 6.25 to 50 mg/kg measured by H and E staining method; assay type: organism-based; settings: in vivo, dose 6.25-50 mg/kg
[11] = Acute toxicity in female ICR mouse assessed as pathological changes in intestine at 6.25 to 50 mg/kg measured by H and E staining method; assay type: organism-based; settings: in vivo, dose 6.25-50 mg/kg
[12] = Acute toxicity in female ICR mouse assessed as changes in ALT level in liver at 6.25 to 50 mg/kg; assay type: organism-based; settings: in vivo, dose 6.25-50 mg/kg
[13] = Acute toxicity in female ICR mouse assessed as changes in AST level in liver at 6.25 to 50 mg/kg; assay type: organism-based; settings: in vivo, dose 6.25-50 mg/kg
[14] = Acute toxicity in female ICR mouse assessed as changes in creatine kinase (CK) level in heart at 6.25 to 50 mg/kg; assay type: organism-based; settings: in vivo, dose 6.25-50 mg/kg
[15] = Acute toxicity in female ICR mouse assessed as pathological changes in heart at 25 mg/kg measured by H and E staining method; assay type: organism-based; settings: in vivo
[16] = Acute toxicity in female ICR mouse assessed as pathological changes in liver at 25 mg/kg measured by H and E staining method; assay type: organism-based; settings: in vivo
[17] = Acute toxicity in female ICR mouse assessed as pathological changes in spleen at 25 mg/kg measured by H and E staining method; assay type: organism-based; settings: in vivo
[18] = Acute toxicity in female ICR mouse assessed as pathological changes in lung at 25 mg/kg measured by H and E staining method; assay type: organism-based; settings: in vivo
[19] = Acute toxicity in female ICR mouse assessed as pathological changes in kidney at 25 mg/kg measured by H and E staining method; assay type: organism-based; settings: in vivo
[20] = Acute toxicity in female ICR mouse assessed as pathological changes in intestine at 25 mg/kg measured by H and E staining method; assay type: organism-based; settings: in vivo
[21] = Acute toxicity in female ICR mouse assessed as changes in ALT level in liver at 25 mg/kg; assay type: organism-based; settings: in vivo
[22] = Acute toxicity in female ICR mouse assessed as changes in AST level in liver at 25 mg/kg; assay type: organism-based; settings: in vivo
[23] = Acute toxicity in female ICR mouse assessed as changes in creatine kinase (CK) level in heart at 25 mg/kg; assay type: organism-based; settings: in vivo

O=C1c2cccc(O)c2C(=O)c2c(O)cc(C(=O)N3CCN(C(=S)SCc4ccccc4)CC3)cc21
IC50 (WI-38): 48.8 µg/mL (≈ 94 µM)
selectivity ratio [1]: 1
IC50 (A549): 78.6 µg/mL (≈ 152 µM)

Cc1ccc(CSC(=S)N2CCN(C(=O)c3cc(O)c4c(c3)C(=O)c3cccc(O)c3C4=O)CC2)cc1
IC50 (WI-38): > 100 µg/mL
selectivity ratio [1]: 1
IC50 (A549): > 100 µg/mL

C=CCSC(=S)N1CCN(C(=O)c2cc(O)c3c(c2)C(=O)c2cccc(O)c2C3=O)CC1
IC50 (WI-38): > 100 µg/mL
selectivity ratio [1]: 3
IC50 (A549): 40.5 µg/mL (≈ 86.5 µM)

O=C1c2cccc(O)c2C(=O)c2c(O)cc(C(=O)N3CCN(C(=S)SCCCOc4ccccc4)CC3)cc21
IC50 (WI-38): > 100 µg/mL
selectivity ratio [1]: 1
IC50 (A549): > 100 µg/mL

CCOC(=O)CCCSC(=S)N1CCN(C(=O)c2cc(O)c3c(c2)C(=O)c2cccc(O)c2C3=O)CC1
IC50 (WI-38): 55.3 µg/mL (≈ 102 µM)
selectivity ratio [1]: 5
IC50 (Calu-1): 23.8 µg/mL (≈ 43.8 µM)
IC50 (PC-9 [2]): 10.8 µg/mL (≈ 19.9 µM)
IC50 (NCI-H460): 23 µg/mL (≈ 42.4 µM)
IC50 (Huh-7): 23.8 µg/mL (≈ 44 µM)
IC50 (786-0): 30.1 µg/mL (≈ 55.6 µM)
IC50 (HCT-116): 25.9 µg/mL (≈ 47.7 µM)
IC50 (HeLa): 30.6 µg/mL (≈ 56.4 µM)
IC50 (SK-BR-3): 52 µg/mL (≈ 95.8 µM)
IC50 (SK-OV-3): 35.5 µg/mL (≈ 65.4 µM)
Activity (PC-9 [3]): 13.22%
Activity (PC-9 [4]): 28.97%
Activity (PC-9 [5]): 47.06%
Activity [6]: Non-Toxic
Activity [7]: Non-Toxic
Activity [8]: Non-Toxic
Activity [9]: Non-Toxic
Activity [10]: Non-Toxic
Activity [11]: Non-Toxic
Activity [12]: Non-Toxic
Activity [13]: Non-Toxic
Activity [14]: Non-Toxic
IC50 (A549): 10.9 µg/mL (≈ 20.1 µM)

O=C1c2cccc(O)c2C(=O)c2c(O)cc(C(=O)N3CCN(C(=S)SCc4ccc(C(F)(F)F)cc4)CC3)cc21
IC50 (WI-38): > 100 µg/mL
selectivity ratio [1]: 1
IC50 (A549): > 100 µg/mL

Nc1ccn([C@@H]2O[C@H](CO)[C@@H](O)[C@@H]2O)c(=O)n1 [CYTARABINE]
IC50 (WI-38): > 100 µg/mL
selectivity ratio [1]: 2
IC50 (A549): 49.3 µg/mL (≈ 203 µM)

O=C(O)c1cc(O)c2c(c1)C(=O)c1cccc(O)c1C2=O [RHEIN]
IC50 (WI-38): 92.3 µg/mL (≈ 325 µM)
selectivity ratio [1]: 1
Activity [15]: Non-Toxic
Activity [16]: Non-Toxic
Activity [17]: Non-Toxic
Activity [18]: Non-Toxic
Activity [19]: Non-Toxic
Activity [20]: Non-Toxic
Activity [21]: Non-Toxic
Activity [22]: Non-Toxic
Activity [23]: Non-Toxic
IC50 (A549): 77.1 µg/mL (≈ 271 µM)

COC(=O)CSC(=S)N1CCN(C(=O)c2cc(O)c3c(c2)C(=O)c2cccc(O)c2C3=O)CC1
IC50 (WI-38): 67 µg/mL (≈ 134 µM)
selectivity ratio [1]: 2
IC50 (A549): 31 µg/mL (≈ 61.9 µM)

COc1cccc2c1C(=O)c1c(O)c3c(c(O)c1C2=O)C[C@@](O)(C(=O)CO)C[C@@H]3O[C@H]1C[C@H](N)[C@H](O)[C@H](C)O1 [DOXORUBICIN]
IC50 (WI-38): 0.079 µg/mL (≈ 0.145 µM)
IC50 (A549): 0.665 µg/mL (≈ 1.22 µM)

O=C1c2cccc(O)c2C(=O)c2c(O)cc(C(=O)N3CCN(C(=S)SCc4ccc(Cl)cc4)CC3)cc21
IC50 (WI-38): 72.5 µg/mL (≈ 131 µM)
IC50 (A549): > 100 µg/mL

O=C(CSC(=S)N1CCN(C(=O)c2cc(O)c3c(c2)C(=O)c2cccc(O)c2C3=O)CC1)OCc1ccccc1
IC50 (WI-38): > 100 µg/mL
selectivity ratio [1]: 3
IC50 (A549): 29.8 µg/mL (≈ 51.7 µM)

O=C1c2cccc(O)c2C(=O)c2c(O)cc(C(=O)N3CCN(C(=S)SCc4ccc(F)cc4)CC3)cc21
IC50 (WI-38): > 100 µg/mL
selectivity ratio [1]: 3
IC50 (A549): 36.4 µg/mL (≈ 67.8 µM)
